# In paper PMC5120204, “Identification of an orally active small-molecule PTHR1 agonist for the treatment of hypoparathyroidism” (Nature Communications, 2016):
# Assays:
# [1] = molecular target: T1, hPTHR1-delNT (Homo sapiens, UniProt Q03431); test: cAMP production assay in COS-7 cells expressing hPTHR1-delNT; format: cell-based; conditions: COS-7 cells transfected with hPTHR1-delNT
# T1 construct: HA + tetraglycine linker (YPYDVPDYA-GGGG); expressed in transfected cells; host or cells: COS-7 (transient)
# T1 sequence (Q03431 with tags, fused parts or gaps): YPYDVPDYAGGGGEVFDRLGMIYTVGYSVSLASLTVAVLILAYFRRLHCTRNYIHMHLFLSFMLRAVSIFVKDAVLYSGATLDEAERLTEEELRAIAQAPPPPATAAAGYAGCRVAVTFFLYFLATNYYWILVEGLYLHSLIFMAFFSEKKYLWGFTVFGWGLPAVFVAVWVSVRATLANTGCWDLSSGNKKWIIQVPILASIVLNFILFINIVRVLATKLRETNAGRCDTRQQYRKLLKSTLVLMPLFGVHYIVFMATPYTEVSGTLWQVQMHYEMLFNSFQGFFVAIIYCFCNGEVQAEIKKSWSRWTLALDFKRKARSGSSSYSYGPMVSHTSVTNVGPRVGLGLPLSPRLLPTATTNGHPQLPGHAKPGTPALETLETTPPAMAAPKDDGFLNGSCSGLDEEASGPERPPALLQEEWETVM
# [2] = molecular target: T2, hPTHR1–hPTHR2 chimeric receptors (C1, C2, C3) and mutant hPTHR1s (M24, M25, M26, M414V, P415L, L416V) (Homo sapiens, UniProt Q03431, P415L); format: cell-based; conditions: single replacement P415L
# T2 construct: expressed in transfected cells; host or cells: COS-7 (transient)
# T2 sequence (Q03431 27-593 E93Y/D94P/K95Y/E96D/A97V/T99D/G100Y/S101A/P415L): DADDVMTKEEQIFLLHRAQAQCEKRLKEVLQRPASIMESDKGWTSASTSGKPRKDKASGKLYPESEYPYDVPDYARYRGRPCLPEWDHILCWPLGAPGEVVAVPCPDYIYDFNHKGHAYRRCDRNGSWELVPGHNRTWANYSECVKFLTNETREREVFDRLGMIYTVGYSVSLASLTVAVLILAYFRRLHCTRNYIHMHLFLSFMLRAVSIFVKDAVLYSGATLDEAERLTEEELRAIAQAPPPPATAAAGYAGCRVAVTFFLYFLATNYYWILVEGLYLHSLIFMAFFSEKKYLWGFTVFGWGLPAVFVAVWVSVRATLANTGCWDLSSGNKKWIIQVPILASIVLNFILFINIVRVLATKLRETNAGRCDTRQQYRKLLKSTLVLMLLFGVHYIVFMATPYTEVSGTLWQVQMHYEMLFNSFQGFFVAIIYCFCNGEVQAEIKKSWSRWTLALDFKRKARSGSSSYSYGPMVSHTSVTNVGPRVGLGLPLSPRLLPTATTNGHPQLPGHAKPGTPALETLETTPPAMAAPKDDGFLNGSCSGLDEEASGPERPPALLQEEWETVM
# Procedure: COS-7 cells (ATCC) were seeded into a 96-well flat-bottomed plate (1.4 × 10^4 cells per 100 μl per well) and incubated overnight. The next day, the COS-7 cells were transfected by adding 10 μl of a mixture of hPTHR1, hPTHR2 or mutant hPTHR1 plasmid, rat PTHR1 or rat PTHR2 plasmid, or empty vector (0.1 μg per well), FuGENE HD Transfection Reagent (0.4 μl per well, Promega), and Opti-MEM I Reduced Serum Medium (10 μl per well, Life Technologies) to each well. […] The plate was placed in a 37 °C constant-temperature water bath for 20 min to allow the reaction to proceed. After incubation, the liquid in the wells was discarded, the wells were washed with the assay medium (100 μl per well), and the plate was frozen on dry ice. Next, 40 μl of 50 mmol l^−1 HCl was added to each well, and the plate was stored in a freezer set at ≤−20 °C. The cAMP concentrations were measured by using a cAMP EIA kit (GE Healthcare). EC50 values were determined from three independent experiments in duplicate by a non-linear regression Emax model (JMP ver.9.0.2, SAS Institute). The geometric mean of the EC50 values obtained in three experiments in duplicate was calculated using Microsoft Office Excel 2007. […]
# [3] = tested on: OVX rats; test: Repeated administration study in OVX rats; format: in vivo, rat
# Procedure: OVX was carried out in 32-week-old female Crl:CD (SD) rats (Charles River Laboratories). Twelve weeks after surgery, lumbar vertebral BMD (L3–L5) was measured in vivo by dual-energy X-ray absorptiometry (DXA) using a DCS-600EX-IIIR bone densitometer (Hitachi Aloka Medical), and the rats were divided into five groups, each with a similar mean value of BMD and body weight. Sample sizes were determined based on previous experiments with hPTHs and a published study with ibandronate and eldecalcitriol in our laboratories[42] (n=7–10). Then, OVX rats were treated once daily intravenously (vehicle or PCO371 at 3 or 10 mg kg^−1) or orally (vehicle or PCO371 at 30 mg kg^−1) or subcutaneously [vehicle or hPTH(1–34) at 0.9 nmol kg^−1] for 12 weeks. Ten to twelve OVX rats were assigned to each dose group. Nine rats were assigned to the sham-operated control group and were treated with vehicle for PCO371. Ten per cent DMSO (Wako Pure Chemical Industries)/10% Kolliphor EL (Sigma-Aldrich) in 10% hydroxypropyl-β-cyclodextrin (HPCD; Nihon Shokuhin Kako)/0.752% glycine (Wako Pure Chemical Industries) buffer was used as vehicle for PCO371, and phosphate-citrate buffer (pH 6.0) was used as vehicle for hPTH(1–34). To label bone-forming surfaces, tetracycline ([…], Nippon Zenyaku Kogyo) was subcutaneously injected on Day 78 and calcein (8 mg kg^−1, Dōjindo Laboratories) was subcutaneously injected on day 83. Under isoflurane anaesthesia, jugular vein blood was collected immediately before and at 1, 2, 6, 10 and 24 h after administration on day 82 to measure plasma concentration of PCO371 or on day 84 to measure serum Ca levels (o-CPC method, Wako Pure Chemical Industries). Urine was collected for 24 h from metabolic cages on days 84–85 to measure urinary collagen type 1 cross-linked C-telopeptide (CTX) by using the RatLaps ELISA System (Immunodiagnostic Systems). Under isoflurane anaesthesia, blood was collected on day 85 from the abdominal aorta to measure serum osteocalcin level by using the Rat Osteocalcin ELISA System (GE Healthcare). The lumbar spine and bilateral femurs were excised after 12 weeks of treatment. The first lumbar vertebra (L1), 3rd to 5th lumbar vertebrae (L3–L5), the right femur, and the right tibia were preserved in 70% ethanol to measure bone histomorphometry and BMD (DCS-600EX; Hitachi Aloka Medical). Measurement of bone histomorphometry was performed by the Ito Bone Histomorphometry Institute (Niigata, Japan). The second lumbar vertebra (L2) was wrapped in saline-soaked gauze and stored at −80 °C until measurement. Ultimate compressive strength (N) of the L2 vertebra was measured by using a mechanical testing machine (TK-252C; Muromachi Kikai).
# [4] = daily oral 30 mg kg^−1, 12 weeks
structure (smiles),measurement,setting,value
"Cc1cc(N2C(=O)NC(=O)C2(C)C)cc(C)c1CCS(=O)(=O)N1CCC2(CC1)N=C(c1ccc(OC(F)(F)F)cc1)NC2=O [PCO371, 1-{3,5-dimethyl-4-[2-({4-oxo-2-[4-(trifluoromethoxy)phenyl]-1,3,8-triazaspiro[4.5]dec-1-en-8-yl}sulfonyl)ethyl]phenyl}-5,5-dimethylimidazolidine-2,4-dione]",EC50,[1],2.5 µM
same,cAMP production,[2],dramatic reduction
same,BMD or bone strength in the lumbar spine,"[3]; daily intravenous 3 mg kg^−1, 12 weeks",did not affect
same,BMD in the proximal femur,[3]; [4],partially increased
same,BMD in total femur,[3]; [4],not in total femur
same,BMD or bone strength in the lumbar spine,[3]; [4],did not affect
same,serum Ca,"[3]; day 84, all treated rats",within the normal range
same,serum osteocalcin and urinary CTX/creatinine,"[3]; intravenous 10 mg kg^−1, 12 weeks",significant increase
same,BMD and bone strength in the lumbar vertebrae,"[3]; once-daily intravenous 10 mg kg^−1, 12 weeks, vs vehicle",significant increase
same,serum osteocalcin and urinary CTX/creatinine,"[3]; oral 30 mg kg^−1, 12 weeks",significant increase
